Data: PubChem BioAssay (NCI)
Values joined by “and” are separate entries in the source; they are usually repeats but may differ in a detail not shown here. Identical values can stand only once.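 Step 1: Grow cells in 96-well plates. Step 2: Expose to compound for 48 hours at 5 concentrations. Step 3: Interpolate endpoints linearly; if unreached, use highest concentration. Here, GI50 denotes the concentration required for 50% inhibition of growth. The concentration for full growth arrest is given as TGI.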

Key:
Test in all cases: growth of human tumour cells (NCI), 48 h
SF-539 CNS = test system: SF-539 CNS
CAKI-1 renal = test system: CAKI-1 renal
HCC-2998 colon = test system: HCC-2998 colon
HOP-62 NSCLC = test system: HOP-62 NSCLC
SW-620 colon = test system: SW-620 colon
MDA-MB-435 = test system: MDA-MB-435
KM12 colon = test system: KM12 colon
OVCAR-5 ovarian = test system: OVCAR-5 ovarian
SK-OV-3 ovarian = test system: SK-OV-3 ovarian
HS 578T breast = test system: HS 578T breast

Row | Structure (SMILES) | GI50 (SF-539 CNS) | TGI (SF-539 CNS) | GI50 (CAKI-1 renal) | TGI (CAKI-1 renal) | GI50 (HCC-2998 colon) | TGI (HCC-2998 colon) | GI50 (HOP-62 NSCLC) | TGI (HOP-62 NSCLC) | GI50 (SW-620 colon) | TGI (SW-620 colon) | GI50 (MDA-MB-435) | TGI (MDA-MB-435) | GI50 (KM12 colon) | TGI (KM12 colon) | GI50 (OVCAR-5 ovarian) | TGI (OVCAR-5 ovarian) | GI50 (SK-OV-3 ovarian) | TGI (SK-OV-3 ovarian) | GI50 (HS 578T breast) | TGI (HS 578T breast)
1 | CC(C)[C@@H]1CC[C@]2(CO2)[C@@H]2C(=O)OCC(C(=O)O)=C[C@H]21 | 0.353 µM | > 34.6 µM | 0.411 µM | > 100 µM | 0.459 µM | > 52.3 µM | 0.35 µM | 6.94 µM | 0.334 µM | > 100 µM | 0.355 µM | 6.72 µM | 0.344 µM | 4.08 µM | 0.54 µM | > 100 µM | 0.438 µM | > 100 µM | 0.288 µM | 2.3 µM
2 | CC(=O)Oc1ccc(C2=Cc3ccc(OC(C)=O)cc3OC2C)cc1 (stereo unspecified) | 2.51 µM | 9.07 µM | 2.31 µM | 5.73 µM | 11.1 µM | 72 µM | 6.07 µM | 57.2 µM | 6.33 µM | 29.8 µM | 0.63 µM | 15 µM | 5.97 µM | 23.2 µM | 21.1 µM | > 100 µM | 6.56 µM | 67 µM | 2.75 µM | 7.81 µM
3 | Cn1c(=O)c2nc3sc4c(n3c2n(C)c1=O)C(=O)c1ccccc1C4=O |  | > 74.2 µM |  | > 100 µM |  | > 100 µM |  | > 53.3 µM |  | > 81.9 µM |  | > 76 µM |  | > 100 µM |  | > 100 µM |  | > 60.9 µM |  | 51.5 µM
4 | Nc1nc(=S)c2ncn(C3OC(COP(=O)(O)O)C(O)C3O)c2[nH]1 (stereo unspecified) | 2.32 µM | > 100 µM | 0.544 µM | > 100 µM | 3.29 µM | > 100 µM | 0.447 µM | 12.7 µM | 3.59 µM | > 100 µM | 2.48 µM | > 100 µM | 3.02 µM | > 100 µM | 0.752 µM | > 100 µM | 0.471 µM | 5.09 µM | 6.36 µM | > 100 µM
5 | COc1ccc(-c2nc3ccc(Cc4ccc5nc(-c6ccc(OC)cc6)[nH]c5c4)cc3[nH]2)cc1 | 0.022 µM | 0.0707 µM | 0.0509 µM | 1.84 µM | 0.027 µM | 0.188 µM | 0.0291 µM | 2.07 µM | < 0.0151 µM | 0.173 µM | < 0.01 µM | 0.0202 µM | < 0.01 µM | 0.163 µM | 0.182 µM | 2.85 µM | 0.0314 µM | 1.89 µM | 0.0334 µM | 2.52 µM
6 | CCc1ccc(Nc2cc(C)c3ccc(O)cc3n2)cc1 | 5.74 µM | 19.1 µM | 4.92 µM | 19 µM | 5.18 µM | 17.4 µM | 11.5 µM | 24.3 µM | 5.48 µM | 20.2 µM | 6.94 µM | 20.3 µM | 6.01 µM | 21.2 µM | 8.49 µM | 21.3 µM | 12.6 µM | 25.2 µM | 10.3 µM | 31.8 µM
7 | Cc1cccc(Cn2cc(CO)c3cnccc32)c1 | > 100 µM | > 100 µM | > 100 µM | > 100 µM | > 100 µM | > 100 µM | > 100 µM | > 100 µM | > 100 µM | > 100 µM | 49.7 µM | > 100 µM | 85.6 µM | > 100 µM | > 100 µM | > 100 µM | > 100 µM | > 100 µM | > 100 µM | > 100 µM
8 | CN(C)c1ccc(-c2cc(-c3ccc(Nc4nc(Nc5ccc(Cl)cc5)nc(Nc5ccc(Cl)cc5)n4)cc3)nc(N)c2C#N)cc1 | 19.8 µM | > 100 µM | > 100 µM | > 100 µM | 99.4 µM | > 100 µM | > 100 µM | > 100 µM | 5.6 µM | 22.7 µM | 27.9 µM | > 100 µM | 10.3 µM | > 100 µM | > 100 µM | > 100 µM | > 100 µM | > 100 µM | 3.94 µM | 59.3 µM
9 | O=C(c1cccs1)c1c(C(F)(F)F)n([O-])c2cc(Cl)c(Cl)cc2[n+]1=O | 0.719 µM | 1.94 µM | 1.53 µM | 2.92 µM | 1.5 µM | 2.86 µM | 1.77 µM | 3.46 µM | 0.0876 µM | 0.865 µM | 1.5 µM | 3.12 µM | 0.517 µM | 1.08 µM | 1.77 µM | 3.16 µM | 2.18 µM | 4.04 µM | 2.02 µM | 4.11 µM
10 | CN1CCN(c2c(F)cc(NC3=C(Cl)C(=O)c4ncccc4C3=O)cc2F)CC1 | 15.7 µM | 29.1 µM | 1.45 µM | 2.77 µM | 11.5 µM | 26.1 µM | 19.2 µM | 42.9 µM | 1.76 µM | 3.82 µM | 1.84 µM | 3.62 µM | 16.5 µM | 33 µM | 14.8 µM | 28 µM | 25.2 µM | 72 µM | 11.2 µM | 56.4 µM
11 | O=C(Nc1ccc(OC(F)(F)Cl)cc1)c1cnc(N2CC[C@@H](O)C2)c(-c2ccn[nH]2)c1 | 13.6 µM | 29.1 µM | 19.4 µM | 63 µM | 8.41 µM | 22.2 µM | 11.4 µM | 28.4 µM | 5.84 µM | 20.5 µM | 7.3 µM | 21.7 µM | 9.26 µM | 24.2 µM | 12.9 µM | 34.2 µM | 20.5 µM | 44.9 µM | 17.6 µM | 49.3 µM
12 | OCCCCC#Cc1ccccc1C#Cc1cccc(C(F)(F)F)c1 | 20.1 µM | 38 µM | 21.3 µM | 36.5 µM | 17.7 µM | 32.3 µM | 16.9 µM | 33.3 µM | 16.9 µM | 37 µM | 16.9 µM | 31.6 µM | 16.2 µM | 31.3 µM | 17.5 µM | 37.2 µM | 19.7 µM | 35.3 µM | 29.7 µM | 71.3 µM
13 | CSc1nc2nc(-c3ccccc3)c(C)c-2c2n1C(C)C(=O)N2 (stereo unspecified) | 86.7 µM | > 100 µM | 53.6 µM | > 100 µM | 88.6 µM | > 100 µM | 44.7 µM | > 100 µM | 58.8 µM | > 100 µM | 32.9 µM | > 100 µM | 47.7 µM | > 100 µM | > 100 µM | > 100 µM | 8.43 µM | 59.1 µM | 77.5 µM | > 100 µM
14 | CC[C@H](C)[C@H](NC(=O)[C@H]1CCCCN1C)C(=O)N(C)[C@H](C[C@@H](OC(C)=O)c1nc(C(=O)NC23CC(C(=O)OC)(C2)C3)cs1)C(C)C | 0.000553 µM and 0.00325 µM | 0.00779 µM and 0.00601 µM | 0.00485 µM |  | 0.00299 µM and 0.00325 µM | > 32.5 µM | 0.000538 µM and 0.00325 µM |  | 0.000424 µM and 0.00325 µM | > 32.5 µM | 0.000137 µM and < 0.00325 µM | 0.00104 µM and < 0.00325 µM | 0.00319 µM and 0.00325 µM | 6.6 µM |  | > 32.5 µM | 0.0022 µM and 0.00357 µM | > 32.5 µM | 0.000388 µM and 0.00325 µM | > 32.5 µM
15 | CNCc1ccc(-c2cc(-c3nc(-c4ccc(S(=O)(=O)C(C)C)cc4)cnc3N)on2)cc1 | 0.502 µM | 1.88 µM | 2.71 µM | 21.1 µM | 2.48 µM | 19.6 µM | 4.56 µM | 22.6 µM | 1.43 µM | 3.78 µM | 1.35 µM | 2.79 µM | 1.87 µM | 12.6 µM | 4.02 µM | 21.9 µM | 6.57 µM | 24.7 µM | 4.61 µM | 38 µM
16 | N#CC(C#N)=C/C=C(\Sc1ccc(Cl)cc1)c1ccc(F)cc1 | 0.251 µM | 0.872 µM | 0.465 µM | 2.77 µM | 2.87 µM | 6.17 µM | 2.54 µM | 16 µM | 0.0532 µM |  | 0.81 µM | 2.91 µM | 0.87 µM | 3.73 µM | 1.37 µM | 15.3 µM | 13.5 µM | 40.7 µM | 2.75 µM | 22.8 µM
